Experimental data: patent publication US20250304620A1, “ANTIMICROBIAL PEPTIDE AND APPLICATION THEREOF” (priority 2023, published 2025)
Values after ≈ are worked out from the molar mass of the structure shown. Marks after values point to notes of the source that are not given here. Non-standard residues stand in square brackets, D forms with d. Residues, ends and D or L forms follow the SMILES beside them. dPhe(4-CF3) = N[C@H](Cc1ccc(C(F)(F)F)cc1)C(=O)O; dPhe(4-F) = N[C@H](Cc1ccc(F)cc1)C(=O)O; d2Nal = N[C@H](Cc1ccc2ccccc2c1)C(=O)O; d(hLeu) = CC(C)CC[C@@H](N)C(=O)O

How the values were obtained:
[1] = tested on: Escherichia coli ATCC 25922; type: cell-based
How it was run: (§1)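 Following CLSI standards, peptides are serially diluted twofold in a microdilution setup against each strain. The MIC is then recorded. The whole experiment is run five times in parallel.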

Enterococcus ATCC 29212 = type: cell-based
How it was run: as §1

[2] = tested on: Salmonella typhimurium ATCC 14028; type: cell-based
How it was run: as §1

[3] = tested on: Bacillus subtilis ATCC 6633; type: cell-based
How it was run: as §1

[4] = tested on: Pseudomonas aeruginosa ATCC 27853; type: cell-based
How it was run: as §1

[5] = tested on: Klebsiella pneumoniae ATCC 700603; type: cell-based
How it was run: as §1

[6] = tested on: Candida albicans ATCC MYA-2876; type: cell-based
How it was run: as §1

[7] = tested on: Candida tropicalis ATCC 750; type: cell-based
How it was run: as §1

[8] = tested on: Staphylococcus aureus ATCC 25923; type: cell-based
How it was run: as §1

[9] = tested on: Serratia marcescens ATCC 29021; type: cell-based
How it was run: as §1

Candida utilis ATCC 9950 = type: cell-based
How it was run: as §1

[10] = tested on: Pseudomonas aeruginosa ATCC 27853; test: Injectable formulations on mice infected with peritonitis; type: in vivo, ICR mice; settings: 1 mg/kg via tail vein, twice a day for 3 days, n = 10; for Average survival times (Days): observed for 14 d
How it was run: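 Survival readout: deaths and survival time tracked for 14 d. Treatment was tail-vein injection by body weight, twice a day for 3 consecutive days, starting right after intraperitoneal challenge with 0.2 mL of 1×10^9 CFU/mL P. aeruginosa ATCC 27853 in male and female ICR mice.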

| SMILES | MIC Escherichia coli ATCC 25922 [1] | MIC Enterococcus ATCC 29212 (Enterococcus ATCC 29212) | MIC Salmonella typhimurium ATCC 14028 [2] | MIC Bacillus subtilis ATCC 6633 [3] | MIC Pseudomonas aeruginosa ATCC 27853 [4] | MIC Klebsiella pneumoniae ATCC 700603 [5] | MIC Candida albicans ATCC MYA-2876 [6] | MIC Candida tropicalis ATCC 750 [7] | MIC Staphylococcus aureus ATCC 25923 [8] | MIC Serratia marcescens ATCC 29021 [9] | MIC Candida utilis ATCC 9950 (Candida utilis ATCC 9950) | Number of mice that died on each day after infection: day 1 [10] | Number of mice that died on each day after infection: day 2 [10] | Number of mice that died on each day after infection: day 3 [10] | Number of mice that died on each day after infection: day 4 [10] | Number of mice that died on each day after infection: day 5 [10] | Average survival times (Days) [10] |
| --- | --- | --- | --- | --- | --- | --- | --- | --- | --- | --- | --- | --- | --- | --- | --- | --- | --- |
| CC(=O)N[C@H](CCCNC(=N)N)C(=O)N[C@H](CCCCN)C(=O)N[C@H](CC(C)C)C(=O)N[C@H](CC(C)C)C(=O)N[C@H](Cc1ccc(C(F)(F)F)cc1)C(=O)N[C@H](CCCCN)C(=O)N[C@H](CC(C)C)C(=O)N[C@H](CCCCN)C(=O)N[C@H](Cc1ccc(C(F)(F)F)cc1)C(=O)N[C@H](CCCCN)C(=O)N[C@H](CCCNC(=N)N)C(N)=O [LV-9] (Ac-[dR][dK][dL][dL][dPhe(4-CF3)][dK][dL][dK][dPhe(4-CF3)][dK][dR]-NH2) | 2 mg/L (≈ 1.21 µM) | 4 mg/L (≈ 2.42 µM) | 2 mg/L (≈ 1.21 µM) | 8 mg/L (≈ 4.84 µM) | 2 mg/L (≈ 1.21 µM) | 2 mg/L (≈ 1.21 µM) | 8 mg/L (≈ 4.84 µM) | 16 mg/L (≈ 9.67 µM) | 2 mg/L (≈ 1.21 µM) | 4 mg/L (≈ 2.42 µM) | 16 mg/L (≈ 9.67 µM) | 1 Mouse | 2 Mouse | 0 Mouse | 1 Mouse | 0 Mouse | 9.3*** Days |
| CC(=O)N[C@H](CCCNC(=N)N)C(=O)N[C@H](CCCNC(=N)N)C(=O)N[C@H](CC(C)C)C(=O)N[C@H](CC(C)C)C(=O)N[C@H](Cc1ccc2ccccc2c1)C(=O)N[C@H](CCCNC(=N)N)C(=O)N[C@H](CC(C)C)C(=O)N[C@H](CCCCN)C(=O)N[C@H](Cc1ccc2ccccc2c1)C(=O)N[C@H](CCCNC(=N)N)C(=O)N[C@H](CCCCN)C(N)=O [LV-21] (Ac-[dR][dR][dL][dL][d2Nal][dR][dL][dK][d2Nal][dR][dK]-NH2) | 2 mg/L (≈ 1.19 µM) | 4 mg/L (≈ 2.39 µM) | 2 mg/L (≈ 1.19 µM) | 2 mg/L (≈ 1.19 µM) | 2 mg/L (≈ 1.19 µM) | 4 mg/L (≈ 2.39 µM) | 8 mg/L (≈ 4.78 µM) | 8 mg/L (≈ 4.78 µM) | 1 mg/L (≈ 0.597 µM) | 4 mg/L (≈ 2.39 µM) | 8 mg/L (≈ 4.78 µM) | 2 Mouse | 0 Mouse | 2 Mouse | 0 Mouse | 0 Mouse | 9.2*** Days |
| CC(=O)N[C@H](CCCNC(=N)N)C(=O)N[C@H](CCCCN)C(=O)N[C@H](CCC(C)C)C(=O)N[C@H](CCC(C)C)C(=O)N[C@H](Cc1ccc2ccccc2c1)C(=O)N[C@H](CCCNC(=N)N)C(=O)N[C@H](CCC(C)C)C(=O)N[C@H](CCCCN)C(=O)N[C@H](Cc1ccc2ccccc2c1)C(=O)N[C@H](CCCNC(=N)N)C(=O)N[C@H](CCCCN)C(N)=O [LV-14] (Ac-[dR][dK][d(hLeu)][d(hLeu)][d2Nal][dR][d(hLeu)][dK][d2Nal][dR][dK]-NH2) | 2 mg/L (≈ 1.18 µM) | 4 mg/L (≈ 2.37 µM) | 4 mg/L (≈ 2.37 µM) | 2 mg/L (≈ 1.18 µM) | 4 mg/L (≈ 2.37 µM) | 4 mg/L (≈ 2.37 µM) | 16 mg/L (≈ 9.48 µM) | 8 mg/L (≈ 4.74 µM) | 2 mg/L (≈ 1.18 µM) | 8 mg/L (≈ 4.74 µM) | 4 mg/L (≈ 2.37 µM) | 1 Mouse | 2 Mouse | 0 Mouse | 1 Mouse | 1 Mouse | 8.4** Days |
| CC(=O)N[C@H](CCCNC(=N)N)C(=O)N[C@H](CCCNC(=N)N)C(=O)N[C@H](CC(C)C)C(=O)N[C@H](CC(C)C)C(=O)N[C@H](Cc1ccc2ccccc2c1)C(=O)N[C@H](CCCCN)C(=O)N[C@H](CC(C)C)C(=O)N[C@H](CCCCN)C(=O)N[C@H](Cc1ccc2ccccc2c1)C(=O)N[C@H](CCCCN)C(=O)N[C@H](CCCNC(=N)N)C(N)=O [LV-24] (Ac-[dR][dR][dL][dL][d2Nal][dK][dL][dK][d2Nal][dK][dR]-NH2) | 1 mg/L (≈ 0.607 µM) | 4 mg/L (≈ 2.43 µM) | 1 mg/L (≈ 0.607 µM) | 2 mg/L (≈ 1.21 µM) | 2 mg/L (≈ 1.21 µM) | 4 mg/L (≈ 2.43 µM) | 8 mg/L (≈ 4.86 µM) | 8 mg/L (≈ 4.86 µM) | 1 mg/L (≈ 0.607 µM) | 2 mg/L (≈ 1.21 µM) | 8 mg/L (≈ 4.86 µM) | 1 Mouse | 2 Mouse | 0 Mouse | 0 Mouse | 1 Mouse | 9.4*** Days |
| CC(=O)N[C@H](CCCNC(=N)N)C(=O)N[C@H](CCCCN)C(=O)N[C@H](CC(C)C)C(=O)N[C@H](CC(C)C)C(=O)N[C@H](Cc1ccc2ccccc2c1)C(=O)N[C@H](CCCNC(=N)N)C(=O)N[C@H](CC(C)C)C(=O)N[C@H](CCCCN)C(=O)N[C@H](Cc1ccccc1)C(=O)N[C@H](CCCNC(=N)N)C(=O)N[C@H](CCCCN)C(N)=O [LV-4] (Ac-[dR][dK][dL][dL][d2Nal][dR][dL][dK][dF][dR][dK]-NH2) | 2 mg/L (≈ 1.25 µM) | 2 mg/L (≈ 1.25 µM) | 2 mg/L (≈ 1.25 µM) | 4 mg/L (≈ 2.51 µM) | 2 mg/L (≈ 1.25 µM) | 4 mg/L (≈ 2.51 µM) | 8 mg/L (≈ 5.01 µM) | 16 mg/L (≈ 10 µM) | 1 mg/L (≈ 0.627 µM) | 2 mg/L (≈ 1.25 µM) | 8 mg/L (≈ 5.01 µM) | 0 Mouse | 1 Mouse | 0 Mouse | 2 Mouse | 1 Mouse | 9.9**** Days |
| CC(=O)N[C@H](CCCNC(=N)N)C(=O)N[C@H](CCCCN)C(=O)N[C@H](CC(C)C)C(=O)N[C@H](CC(C)C)C(=O)N[C@H](Cc1ccc(F)cc1)C(=O)N[C@H](CCCCN)C(=O)N[C@H](CC(C)C)C(=O)N[C@H](CCCCN)C(=O)N[C@H](Cc1ccc(F)cc1)C(=O)N[C@H](CCCCN)C(=O)N[C@H](CCCNC(=N)N)C(N)=O [LV-5] (Ac-[dR][dK][dL][dL][dPhe(4-F)][dK][dL][dK][dPhe(4-F)][dK][dR]-NH2) | 4 mg/L (≈ 2.57 µM) | 2 mg/L (≈ 1.29 µM) | 4 mg/L (≈ 2.57 µM) | 4 mg/L (≈ 2.57 µM) | 2 mg/L (≈ 1.29 µM) | 2 mg/L (≈ 1.29 µM) | 8 mg/L (≈ 5.15 µM) | 8 mg/L (≈ 5.15 µM) | 1 mg/L (≈ 0.644 µM) | 2 mg/L (≈ 1.29 µM) | 16 mg/L (≈ 10.3 µM) | 1 Mouse | 1 Mouse | 1 Mouse | 0 Mouse | 1 Mouse | 9.5*** Days |
